Literature values in patent US7884136B2, “Modified-release formulations of a bupropion salt” (Biovail Laboratories International S.R.L., priority 2005, dated 2011).

Settings: PEG-Fatty Acid Monoester Surfactants; cited from earlier work

Compound | HLB
PEG-7 oleate | 10.4
PEG-5 stearate | 9.5
PEG 400 dioleate | >10
PEG-50 stearate | >10
PEG-9 oleate | >10
PEG-200 oleate | >10
PEG-12 stearate | 14
PEG-40 stearate | >10
PEG-6 stearate | 9.7
PEG-12 ricinoleate | >10
PEG-400 oleate | >10
PEG-30 stearate | >10
PEG-5 oleate | 9.5
PEG-12 oleate | 14
PEG 4-100 monooleate | >8

Same assay, conditions: Polyglycerized Fatty Acids; cited from earlier work

Compound | HLB
Polyglyceryl-10 decaoleate | 3.5
Polyglyceryl-4 pentaoleate | <10
Polyglyceryl-10 pentaoleate | 3.5
Polyglyceryl-3 oleate | 6.5
Polyglyceryl-2 dioleate | 7

Same assay, conditions: Propylene Glycol Fatty Acid Esters; cited from earlier work

Compound | HLB
CCCCCCCCCCCC(=O)OCC(C)OC(=O)CCCCCCCCCCC (centres unmarked) [Propylene glycol dilaurate] | >6
CCCCCCCCCC(=O)OCC(C)OC(=O)CCCCCCCCC (centres unmarked) [Propylene glycol dicaprate] | >6
CCCCCCCCCCCCCCCCCC(=O)OCC(C)OC(=O)CCCCCCCCCCCCCCCCC (centres unmarked) [Propylene glycol distearate] | >6

Same assay, conditions: Sorbitan Fatty Acid Ester Surfactants; as reported by the manufacturer; cited from earlier work

Compound | HLB
Sorbitan monostearate | 4.7
Sorbitan sesquistearate | 4.2

Same assay, conditions: Sugar Ester Surfactants; as reported by the manufacturer; cited from earlier work

Compound | HLB
Sucrose monopalmitate | >10
Sucrose distearate | 3

Same assay, conditions: Transesterification Products of Oils and Alcohols; cited from earlier work

Compound | HLB
CCCCCCCCCCCCCCCCCC(=O)OCC(CO)(CO)COC(=O)CCCCCCCCCCCCCCCCC [Pentaerythrityl distearate] | <10
CCCCCCCCCCCCCCCCCC(=O)OCC(COC(=O)CCCCCCCCCCCCCCCCC)(COC(=O)CCCCCCCCCCCCCCCCC)COC(=O)CCCCCCCCCCCCCCCCC [Pentaerythrityl tetrastearate] | <10
